Measurements published in patent publication US20130190248A1, “S[…] ANALOGS” (AGENSYS, INC., priority 2011, published 2013).
Where a SMILES comes first, the peptide text is derived from it. [ ]: non-standard residue; d: D form. The star is where a group is joined. Dolaproine = CO[C@@H]([C@@H]1CCCN1)[C@@H](C)C(=O)O; Dil = CC[C@H](C)[C@H](NC)[C@@H](CC(=O)O)OC; NH(2-(2-pyridyl)ethyl) = c1ccc(CCN*)nc1; NMeV = CN[C@H](C(=O)O)C(C)C

System: SW780 human bladder cancer cells
Assay: In vivo efficacy in subcutaneously established human bladder cancer cell line SW780 implanted in ICR SCID mice
Details: QW for 3 weeks, SW780 xenograft, male ICR SCID mice
Experimental: Determination of In Vivo Efficacy of Test Compounds: Efficacy Evaluation in Subcutaneously Established Human Bladder Cancer Cell Line SW780 Implanted in ICR SCID Mice
For animal in vivo studies, the test compounds were diluted with 20 mM Histidine, 5% Sucrose, pH 6 with 15% DMSO. Male ICR SCID mice (Taconic Farm, Hudson, N.Y.) were housed in standard rodent micro isolator cages. Environment controls for the animal rooms were set to maintain a temperature between 68-75° F., a relative humidity between 30% to 70%, and an approximate 12 h light/12 h dark cycle. Food and water was provided ad libitum. After 72 h of acclimatization, the mice were implanted with SW780 human bladder cancer cells (2×10^6 cells/mouse), suspended in 50% complete cultrex (Trevigen, Inc.) mixed with 1×PBS (Gibco), and the tumor growth rate was monitored. When the average tumor volume reached ˜200 mm^3, tumors were size-matched and mice were randomized to treatment groups (n=8 or 10). The tumor-bearing mice were treated i.v. with Vehicle or test compound at 2 or 4 mg/kg (mpk) on a QW dosing schedule for 3 weeks. Tumor volume was assessed twice weekly using caliper measurement.

## CC[C@H](C)[C@@H]([C@@H](CC(=O)N1CCC[C@H]1[C@H](OC)[C@@H](C)C(=O)NCCc1ccc(N)cc1)OC)N(C)C(=O)[C@@H](NC(=O)[C@H](C(C)C)N(C)C)C(C)C [Example 22, (S)—N-((3R,4S,5S)-1-((S)-2-((1R,2R)-3-((4-aminophenethyl)amino)-1-methoxy-2-methyl-3-oxopropyl)pyrrolidin-1-yl)-3-methoxy-5-methyl-1-oxoheptan-4-yl)-2-((S)-2-(dimethylamino)-3-methylbutanamido)-N,3-dimethylbutanamide]
2 mg/kg i.v.
  effect on tumor growth (mean tumor volume versus days of treatment): tumor stasis

## CC[C@H](C)[C@@H]([C@@H](CC(=O)N1CCC[C@H]1[C@H](OC)[C@@H](C)C(=O)NCCc1ccccn1)OC)N(C)C(=O)[C@@H](NC(=O)[C@@H](NC)C(C)C)C(C)C [Example 1, (S)—N-((3R,4S,5S)-3-Methoxy-1-((S)-2-((1R,2R)-1-methoxy-2-methyl-3-oxo-3-((2-(pyridin-2-yl)ethyl)amino)propyl)pyrrolidin-1-yl)-5-methyl-1-oxoheptan-4-yl)-N,3-dimethyl-2-((S)-3-methyl-2-(methylamino)butanamido)butanamide] (H-[NMeV]V[Dil][Dolaproine]-{NH(2-(2-pyridyl)ethyl)})
2 mg/kg i.v.
  effect on tumor growth (mean tumor volume versus days of treatment): tumor stasis
4 mg/kg i.v.
  effect on tumor growth (mean tumor volume versus days of treatment): tumor stasis
